Reference: PMC5399635 (The Journal of Pharmacology and Experimental Therapeutics, 2017)
Values joined by “and” are separate entries in the source; they are usually repeats but may differ in a detail not shown here. Equal entries are not always repeated. “Also recorded” adds a separate entry of the source. Where two headings read alike, the source gives them in different places.

How the values were obtained:
[1] = target: T1, human δ-opioid receptor (Homo sapiens, UniProt P41143); test: [35S]GTPγS functional assay, δ-opioid receptor (CHO membranes); assay type: biochemical; conditions: agonist mode, relative to DPDPE 10 µM; single experiment
T1 construct: expressed in transfected cells; host or cells: CHO cells

[2] = tested on: opioid-induced constipation; parameters: method as in Chey et al., 2014; conditions: two trials, ref Chey et al., 2014, cited from earlier work
[3] = target: T2, κ-opioid receptors (Oryctolagus cuniculus, UniProt G1SJ19); test: Isolated field-stimulated rabbit vas deferens assay; conditions: concentrations up to 10 µM
T2 construct: isolated tissue preparation from the rabbit vas deferens; from tissue; host or cells: rabbit vas deferens
Experimental: These were single experiments conducted across a range of 12 half-log concentrations, from […], with 1 replicate per concentration; experimental conditions were as described for [^35S]GTPγS binding experiments with human recombinant µ-opioid receptors. Functional activity at κ-opioid receptors was also determined in an isolated tissue preparation from the rabbit vas deferens, using methods detailed previously ([Oka et al., 1981]).

[4] = tested on: panel of more than 300 receptors, ion channels, transporters, and enzymes; test: Binding screen across a panel of more than 300 targets; conditions: 10 µM; apart from opioid receptors; data not shown
[5] = target: T3, rat κ-opioid receptor (Rattus norvegicus, UniProt P34975); test: Radioligand binding, κ-opioid receptor ([3H]U69593)
T3 construct: expressed in transfected cells; host or cells: CHO cells
Experimental: Competitive inhibition studies were performed on cloned opioid receptors expressed in membranes of Chinese hamster ovary (CHO) cells and conducted in triplicate (n = 3 independent experiments).
Radioligand binding assays were performed to evaluate the ability of these agents to inhibit specific radioligand binding to cloned opioid receptor subtypes. Half-maximal inhibitory concentration (IC50), equilibrium dissociation constant for the inhibitor (Ki), and negative log of the equilibrium dissociation constant for the inhibitor (pKi) values were obtained. The receptor binding methods used for µ ([Zhang et al., 1998])-, δ ([Simonin et al., 1994])-, and κ ([Meng et al., 1993])-opioid receptors have been described previously, with the exception that 100 mM NaCl was added to the incubation buffer in the µ-opioid receptor binding assay. All assays were conducted in 200-µl volume. All assay incubations were terminated by filtration, and bound radioligand was quantitated by liquid scintillation spectrometry. The IC50 values were determined by nonlinear regression analysis of the competition curves generated with the mean of duplicate values using Hill equation curve fitting. The inhibition constants (Ki) were calculated using the Cheng-Prusoff equation. The pKi results from three independent experiments were analyzed for significant differences by one-way analysis of variance (ANOVA) followed by Bonferroni multiple comparison test.

[6] = tested on: morphine-induced antinociception; test: Hot plate model of nociception, antagonism of morphine; conditions: Rattus norvegicus, po, read-out: ED50, antagonism of morphine analgesia
[7] = tested on: other transporters; parameters: method as in earlier work; conditions: ref 2013 AstraZeneca unpublished data; cited from earlier work
[8] = tested on: Caco2 cells
[9] = tested on: peripheral and central effects of morphine; parameters: method as in Eldon et al., 2015; conditions: healthy male volunteers administered morphine; ref Eldon et al., 2015; cited from earlier work

T3 sequence (P34975 whole entry): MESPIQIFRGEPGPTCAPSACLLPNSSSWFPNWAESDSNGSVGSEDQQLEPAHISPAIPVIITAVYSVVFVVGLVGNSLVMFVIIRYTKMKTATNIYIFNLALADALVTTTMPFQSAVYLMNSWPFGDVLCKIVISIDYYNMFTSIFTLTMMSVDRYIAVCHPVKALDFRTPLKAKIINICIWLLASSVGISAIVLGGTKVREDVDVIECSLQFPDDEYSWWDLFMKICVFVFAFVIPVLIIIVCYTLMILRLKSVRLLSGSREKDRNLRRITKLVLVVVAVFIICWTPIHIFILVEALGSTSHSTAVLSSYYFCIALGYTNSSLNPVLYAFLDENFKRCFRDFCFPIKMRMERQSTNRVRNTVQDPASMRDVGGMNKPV
T1 sequence (P41143 whole entry): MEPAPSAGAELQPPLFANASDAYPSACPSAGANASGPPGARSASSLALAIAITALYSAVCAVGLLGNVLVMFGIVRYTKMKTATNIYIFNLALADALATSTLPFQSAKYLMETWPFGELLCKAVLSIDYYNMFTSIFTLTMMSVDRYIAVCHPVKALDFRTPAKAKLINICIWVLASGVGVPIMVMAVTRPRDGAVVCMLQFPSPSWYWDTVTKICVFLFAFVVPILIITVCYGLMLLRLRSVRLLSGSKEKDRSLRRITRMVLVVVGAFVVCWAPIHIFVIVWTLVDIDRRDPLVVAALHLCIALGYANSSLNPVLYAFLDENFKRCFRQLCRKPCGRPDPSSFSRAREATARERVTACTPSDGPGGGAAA
T2 sequence (G1SJ19 1-383): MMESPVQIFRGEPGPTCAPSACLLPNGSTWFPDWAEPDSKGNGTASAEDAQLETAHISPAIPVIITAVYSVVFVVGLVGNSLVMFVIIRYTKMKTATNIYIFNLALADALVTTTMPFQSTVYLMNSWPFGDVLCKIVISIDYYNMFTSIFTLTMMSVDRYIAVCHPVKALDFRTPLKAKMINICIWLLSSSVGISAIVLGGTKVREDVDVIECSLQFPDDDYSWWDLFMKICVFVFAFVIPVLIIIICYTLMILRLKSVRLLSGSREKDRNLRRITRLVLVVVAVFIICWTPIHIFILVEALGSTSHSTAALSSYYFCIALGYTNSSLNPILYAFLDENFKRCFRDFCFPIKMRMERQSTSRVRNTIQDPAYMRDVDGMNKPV

Q: With `C=CCN1CC[C@]23c4c5ccc(O)c4O[C@H]2[C@@H](OCCOCCOCCOCCOCCOCCOCCOC)CC[C@@]3(O)[C@H]1C5` [Naloxegol, naloxegol] as the molecule, how does the agonism [1] read?
A: The agonism was “no agonism”.

Q: And the “12-week response rate versus placebo” value ([2]; 12.5 mg once daily)?
A: Its value is “significantly higher than with placebo in only one trial”.

Q: What about the “12-week response rate versus placebo” value ([2]; 25 mg once daily) of the same molecule?
A: The value was “Significantly more patients responded”.

Q: And the “agonist activity at κ-opioid receptors” value [3]?
A: The value was “no agonist activity”.

Q: And the “inhibition of binding across panel” value [4]?
A: Its value is ≤ 30%.

Q: What about the Ki ([5]; cloned rat κ-opioid receptors, read-out: geometric mean Ki) of the same molecule?
A: Its Ki is 8.65 nM and 8.6 nM.

Q: And the Ki ([5]; no measure named, read-out: κ-opioid receptor value expressed as plasma concentration (Fig. 5) (converted))?
A: The Ki was 8.59 nM.

Q: And the ED50 [6]?
A: The ED50 was 55.4 mg/kg.

Q: And the “substrate status for other transporters” value [7]?
A: The value was “not a substrate of other transporters”.

Q: And the “efflux transporter substrate status” value [8]?
A: The value was “substrate for at least one apically directed efflux transporter, likely the P-gp transporter; also recorded: substrate for the P-glycoprotein transporter”.

Q: And the “effect on morphine-induced miosis” value [9]?
A: The value was “no change in morphine-induced miosis”.

Q: What about the “effect on orocecal transit time” value [9] of the same molecule?
A: Its value is “reduced orocecal transit time”.
